Laboratory results: PMC9260667, “Thioredoxin Reductase Inhibitors as Potential Antitumors: Mercury Compounds Efficacy in Glioma Cells” (Frontiers in Molecular Biosciences, 2022)

Assays:
Assay type in all cases: cell-based, mouse
GL261 cells [1] = experiment: ROS production (H2DCFDA assay); conditions: GL261, 3 h exposure, 0.5-5 µM
Protocol: The assessment of general ROS production was based on the 2′,7′-dichlorodihydrofluorescein diacetate (H2DCFDA) assay ([Huang et al., 2014]).
Cells (8 × 10^4) were plated in black 96-well microplates and then incubated at 37°C for 24 h. Afterwards, the medium was removed, the cells were washed twice with PBS 1x, and culture media with DHCF-DA ([…]) was added to each well followed by a 40 min incubation at 37°C. After the incubation period, the DHCF-DA containing media was removed and the wells were washed twice with PBS 1x before being replenished with fresh medium. This was followed by exposure of cells to Hg compounds (EtHg and TmHg 0.5; 1, 2.5; and 5 µM) for 3 h using 1 mM H2O2 as a positive control. The fluorescence signal was read in a microplate reader (Zenyth 3100, Anthos Labtec Instruments) using 495 nm as the excitation wavelength and 529 nm as the emission wavelength.

Trx1 and Trx2 = experiment: Trx oxidation state (Redox Western); conditions: GL261, 1 µM, 24 h
Protocol: The redox state of Trx1 and Trx2 was evaluated by the quantification of the number of reduced -SH groups (Free -SH), according to the Protein Electrophoretic Mobility Shift Assay ([Bersani et al., 2002]; [Branco et al., 2017]).
Briefly, after exposure to the TmHg and EtHg for 24 h, cell pellets were resuspended in Sample Solution (SS - Tris 50 mM, Urea 8 M, pH 8.3) containing 30 mM of iodoacetic acid (IAA; Sigma) and incubated at 37°C for 30 min to alkylate free thiols. This was followed by centrifugation at 13,000 g for 10 min, and the resulting supernatant was washed 3 times with an acetone/1 M HCl mix (98:2 v/v), followed by centrifugation at 13,000 g for 5 min. After evaporation of the acetone mixture, the resulting pellet was incubated at 37°C for 30 min in a SS solution containing 5 mM of DTT to reduce thiols oxidized by TmHg and EtHg. Posteriorly, these thiols were alkylated with SS containing 10 mM iodoacetamide (IAM; Sigma) at 37°C for 30 min.
Next, the samples were loaded onto a Urea-PAGE gel (stacking gel: 4% acrylamide; run gel: 12% acrylamide; 8 M Urea) and run at 10 mA. After 2 h, the proteins in the gel were transferred to a nitrocellulose membrane blocked with skimmed milk and incubated with respective antibodies - Trx1 rabbit polyclonal IgG (ATRX8, IMCO Corp.), Trx2 rabbit polyclonal IgG (sc-50335, Sta. Cruz) and mouse anti-rabbit IgG-HRP (sc-2357, Sta. Cruz). […]

Caspase-3 = Caspase-3 activity (DEVD-pNA assay) in lysates of exposed GL261 cells; conditions: GL261, 5 µM, 24 h
Protocol: Caspase-3 activity was determined by measuring the enzymatic cleavage of chromophore p-nitroanilide (pNA) from the substrate N-acetyl-Asp-Glu-Val-Asp-pNA (DEVD-pNA) ([Borralho et al., 2007]).
This activity was determined based on a proteolytic reaction previously described ([Borralho et al., 2007]) with some modifications. In this assay total cell lysates were used, where cells were exposed to the TmHg and EtHg (1; 2 and 5 µM) for 24 h. This reaction was performed in an isolation buffer, containing 100 μg of cytosolic protein of cellular lysates, 50 μM of DTT, and […] of DEVD-pNA (Sigma-Aldrich). Next, the reaction mixtures were incubated at 37°C for 3 h. Finally, the pNa formation was measured at 405 nm using a microplate reader (Zenyth 3100, Anthos Labtec Instruments) ([Borralho et al., 2007]).

GL261 cells [2] = experiment: cells; conditions: for increase of LDH release upon co-exposure with TMZ: GL261, 200 µM TMZ + 1 µM mercury compound; for EC50: GL261, 24 h exposure, read-out: EC50 (LDH assay)
Protocol: Cells were seeded in 96-well plates for 24 h prior to the addition of TmHg, EtHg (1 µM), TMZ (200, 400, and 800 µM), and for the 48 h end point the co-exposure of TMZ 200 µM with 1 µM EtHg and 1 µM TmHg. After exposure for 24 and 48 h, the supernatant was transferred to a fresh plate and a lysis buffer (10×) (Thermo Scientific™ Pierce™) was added to wells containing cells and incubated at 37°C for 45 min. LDH activity was evaluated using LDH Cytotoxicity Assay Kit from Thermo Scientific™ Pierce™ in the supernatant and lysate by the addition of lactate (substrate), a tetrazolium salt, and NAD^+ (cofactor) (Reaction Mixture), according to the manufacturer’s instructions. Following 30 min of incubation in the dark at room temperature, LDH release was assessed by measuring the absorbance at 490 and 680 nm in a microplate reader (Omega BMG LABTECH). The release of LDH was quantified as the ratio between the amount in the supernatant and total LDH (supernatant + lysate) ([Branco et al., 2017]).

Structure (SMILES) | ROS production (GL261 cells [1]) | redox states of Trx1 and Trx2 (Trx1 and Trx2) | increase of caspase-3 activity (Caspase-3) | increase of LDH release upon co-exposure with TMZ (GL261 cells [2]) | EC50 (GL261 cells [2]) [nM] | EC50 (LDH) fold lower in GL261 than in SH-SY5Y cells (GL261 cells [2]; GL261 versus previously reported SH-SY5Y value (Branco et al., 2017)) [fold]
C[CH2][Hg] [EtHg, ethylmercury] | concentration-dependent increase | increasing the oxidation of Cys residues in both isoforms | up to 50% | greater than 50% | 1710 ± 400 | 3
C[CH2][Hg][S]c1ccccc1C(=O)[O-].[Na+] [TmHg, thimerosal] | concentration-dependent increase | increasing the oxidation of Cys residues in both isoforms | up to 50% | greater than 50% | 1310 ± 200 | 
